The values below come from EPA's ToxRefDB 2.

The test system of series [1] is rat. The following applies: Prenatal developmental toxicity study, sprague dawley albino, Oral, Gavage/Intubation, dose end: 19 GD.
The test system of series [2] is rat. The following applies: Multigenerational reproductive toxicity study, wistar, Oral, Feed, dose end: 2 generation.
Series [3] deals with rabbit. The following applies: Prenatal developmental toxicity study, himalayan, Oral, Gavage/Intubation, dose end: 27 GD.
Series [4] deals with rabbit. Conditions: Prenatal developmental toxicity study, new zealand white, Oral, Gavage/Intubation, dose end: 19 GD.
The test system of series [5] is mouse. Conditions: Multigenerational reproductive toxicity study, cd1, Oral, Water, dose end: 1 generation.
In series [6] the test system is mouse. The following applies: Prenatal developmental toxicity study, cd1, Oral, Gavage/Intubation, dose end: 15 GD.
Series [7] has as its system rabbit. The following applies: Prenatal developmental toxicity study, new zealand white, Dermal, Topical, dose end: 19 GD.
Series [8] relates to rabbit. The following applies: Prenatal developmental toxicity study, new zealand white, Oral, Gavage/Intubation, dose end: 18 GD.
The test system of series [9] is rabbit. Conditions: Prenatal developmental toxicity study, other, Oral, Gavage/Intubation, dose end: 18 GD.
For series [10], the system named is rat. Conditions: Peri- and post-natal toxicity study (Segment III), wistar, Oral, Gavage/Intubation, dose end: 21 PND.
Series [11] relates to rat. The following applies: Multigenerational reproductive toxicity study, wistar, Oral, Gavage/Intubation, dose end: 1 generation.
In series [12] the test system is rat. The following applies: Combined chronic toxicity/carcinogenicity, sprague dawley, Oral, Feed, dose end: 106 week.
The subject of series [13] is rat. The following applies: Prenatal developmental toxicity study, sprague dawley, Oral, Gavage/Intubation, dose end: 15 GD.
The mark [14] stands for this setting: group: developmental, developmental / developmental landmark / anogenital distance (agd) / anogenital distance (agd).
Where [15] appears, read: group: maternal, systemic / in life observation / body weight / body weight gain + systemic / in life observation / food consumption / food consumption.
[16] abbreviates: group: maternal, systemic / in life observation / body weight / body weight gain + systemic / in life observation / food consumption / food consumption + ….
Where [17] appears, read: group: offspring, systemic / organ weight / liver / absolute + systemic / organ weight / liver / nos + systemic / organ weight / epididymis / absolute + ….
Where [18] appears, read: group: offspring, systemic / organ weight / testes / nos.
Setting [19] is: group: parental, systemic / organ weight / testes / absolute.
[20] abbreviates: group: parental, systemic / organ weight / testes / absolute + systemic / organ weight / liver / nos + systemic / organ weight / testes / nos + systemic / ….
[21] abbreviates: group: reproductive, reproductive / reproductive performance / fertility / fertility.
Where [22] appears, read: group: developmental, developmental / developmental malformation / bone / [other] + developmental / developmental malformation / bone / fused + developmental / ….
The mark [23] stands for this setting: group: maternal, reproductive / reproductive performance / postimplantation loss / postimplantation loss + systemic / in life observation / body weight / ….
Setting [24] is: group: developmental, developmental / developmental malformation / general / local edema + developmental / developmental malformation / great vessels / persistent….
[25] abbreviates: group: maternal, reproductive / reproductive performance / preimplantation loss / preimplantation loss + reproductive / reproductive performance / ….
Where [26] appears, read: group: maternal, systemic / in life observation / body weight / body weight gain.
[27] abbreviates: group: offspring, systemic / in life observation / body weight / offspring (pup) weight.
Setting [28] is: group: parental, systemic / organ weight / liver / absolute + systemic / organ weight / liver / relative to body weight + systemic / organ weight / pituitary….
Setting [29] is: group: reproductive, reproductive / reproductive performance / reproductive performance other / NOS + reproductive / reproductive performance / gestational ….
Setting [30] is: group: developmental, developmental / developmental malformation / bone / exencephaly + developmental / developmental malformation / bone / fused + developmental….
Where [31] appears, read: group: developmental, systemic / in life observation / body weight / fetal weight.
[32] abbreviates: group: maternal, systemic / organ weight / liver / relative to body weight.
Setting [33] is: group: developmental, developmental / developmental malformation / innominate artery / [other].
The mark [34] stands for this setting: group: maternal, systemic / in life observation / body weight / body weight + systemic / in life observation / body weight / body weight gain + reproductive….
The mark [35] stands for this setting: group: developmental, developmental / developmental malformation / bone / [other] + developmental / developmental malformation / bone / curled + developmental / ….
The mark [36] stands for this setting: group: maternal, systemic / in life observation / body weight / body weight gain + reproductive / reproductive performance / aborted / aborted + reproductive….
Setting [37] is: group: maternal, systemic / in life observation / body weight / body weight + systemic / in life observation / body weight / body weight gain + systemic / in….
[38] abbreviates: group: offspring, systemic / in life observation / body weight / offspring (pup) weight gain.
Setting [39] is: group: parental, systemic / in life observation / body weight / body weight gain + systemic / in life observation / food consumption / food consumption.
[40] abbreviates: group: reproductive, reproductive / offspring survival early / dead fetuses / dead fetuses.
The mark [41] stands for this setting: group: cholinesterase, cholinesterase / cholinesterase / cholinesterase / erythrocyte cholinesterase (che) + cholinesterase / cholinesterase / cholinesterase / ….
The mark [42] stands for this setting: group: systemic, systemic / in life observation / body weight / body weight + systemic / in life observation / body weight / body weight gain + systemic / in….
Where [43] appears, read: group: developmental, developmental / developmental malformation / trunk / ecchymosis.
Where [44] appears, read: group: developmental, developmental / developmental malformation / trunk / ecchymosis + developmental / developmental malformation / bone / incomplete ….

Consider `CC12CC1(C)C(=O)N(c1cc(Cl)cc(Cl)c1)C2=O` (configuration not stated) [Procymidone], for which the LEL in the series on rat [1] (setting [14]) came out at 12.5 mg/kg/day; in the series on rat [1] (setting [16]), 125 mg/kg/day; in the series with rat [2] (setting [18]) it was 5.35 mg/kg/day; in the series with rat [2] (setting [19]), 22.7 mg/kg/day; in the series with rat [2] (setting [21]), 73.2 mg/kg/day. The LOAEL – broadly, the lowest tested level that showed an adverse finding – with rat [1] (setting [14]) is 12.5 mg/kg/day; in the series on rat [1] (setting [15]), 125 mg/kg/day; with rat [2] (setting [17]), greater than 77.8 mg/kg/day; in the series on rat [2] (setting [19]) it was 22.7 mg/kg/day; in the series on rat [2] (setting [21]) it was 73.2 mg/kg/day. Also, the NEL in the series with rat [1] (setting [14]) is 3.5 mg/kg/day; in the series on rat [1] (setting [16]) it was 12.5 mg/kg/day; in the series with rat [2] (setting [18]), less than 5.35 mg/kg/day; in the series on rat [2] (setting [20]), 4.52 mg/kg/day; in the series on rat [2] (setting [21]) it was 24.1 mg/kg/day. The NOAEL (as a rule, the highest dose or exposure tested at which no adverse effect was seen) with rat [1] (setting [14]) is 3.5 mg/kg/day; in the series with rat [1] (setting [16]), 12.5 mg/kg/day; in the series with rat [2] (setting [17]), no less than 77.8 mg/kg/day; in the series on rat [2] (setting [20]), 4.52 mg/kg/day; in the series with rat [2] (setting [21]) it was 24.1 mg/kg/day.

As to `CCCCCCCCCCCCCC[N+](C)(C)CCC[Si](OC)(OC)OC.[Cl-]`, in the series with rabbit [3] (setting [22]), the LEL was found to be 180 mg/kg/day, the LOAEL is greater than 180 mg/kg/day, the NEL was found to be 90 mg/kg/day and the NOAEL was no less than 180 mg/kg/day. In the series on rabbit [3] (setting [23]), the LEL worked out at 180 mg/kg/day, the LOAEL is greater than 180 mg/kg/day, the NEL came to 90 mg/kg/day and the NOAEL is no less than 180 mg/kg/day.

As for `COCCOCCOCCOC` [Triethylene glycol dimethyl ether], the LOAEL is greater than 250 mg/kg/day with rabbit [4] (setting [24]); greater than 250 mg/kg/day in the series on rabbit [4] (setting [25]); greater than 175 mg/kg/day in the series on mouse [5] (setting [27]); greater than 175 mg/kg/day in the series on mouse [5] (setting [28]); greater than 175 mg/kg/day in the series with mouse [5] (setting [29]); greater than 1000 mg/kg/day with mouse [6] (setting [30]). Further, the LOAEL in the series on mouse [6] (setting [32]) was greater than 1000 mg/kg/day. The NEL is 75 mg/kg/day with rabbit [4] (setting [24]); 125 mg/kg/day with rabbit [4] (setting [25]); 43.8 mg/kg/day in the series on mouse [5] (setting [27]); 87.5 mg/kg/day with mouse [5] (setting [28]); 43.8 mg/kg/day with mouse [5] (setting [29]); 250 mg/kg/day in the series on mouse [6] (setting [30]). The compound also gave an NEL with mouse [6] (setting [32]) of 250 mg/kg/day. For the same compound, the NOAEL in the series on rabbit [4] (setting [24]) is no less than 250 mg/kg/day; in the series on rabbit [4] (setting [25]), no less than 250 mg/kg/day; in the series with mouse [5] (setting [27]) it was no less than 175 mg/kg/day; with mouse [5] (setting [28]) it was no less than 175 mg/kg/day; in the series on mouse [5] (setting [29]), no less than 175 mg/kg/day; in the series on mouse [6] (setting [30]), no less than 1000 mg/kg/day. Besides, the NOAEL with mouse [6] (setting [32]) is no less than 1000 mg/kg/day. The LEL in the series with rabbit [4] (group: developmental, developmental / developmental malformation / spleen / small) was found to be 125 mg/kg/day; in the series with rabbit [4] (setting [26]) it was 175 mg/kg/day; in the series on mouse [5] (setting [27]), 87.5 mg/kg/day; in the series with mouse [5] (setting [28]), 175 mg/kg/day; in the series on mouse [5] (group: reproductive, reproductive / reproductive performance / gestational length / gestational length), 87.5 mg/kg/day; in the series with mouse [6] (setting [31]) it was 500 mg/kg/day. Also, the LEL with mouse [6] (setting [32]) was 500 mg/kg/day.

With `Nc1ncn[nH]1` [Amitrole], the LEL was 1000 mg/kg/day in the series on rabbit [7] (setting [33]); 2000 mg/kg/day in the series with rabbit [7] (setting [34]); 40 mg/kg/day in the series with rabbit [8] (setting [35]); 40 mg/kg/day in the series on rabbit [8] (setting [26]); 80 mg/kg/day with rabbit [9] (setting [31]); 80 mg/kg/day with rabbit [9] (setting [37]). Also, the NEL was less than 1000 mg/kg/day in the series on rabbit [7] (setting [33]); 1500 mg/kg/day in the series on rabbit [7] (setting [34]); 4 mg/kg/day in the series with rabbit [8] (setting [35]); 4 mg/kg/day with rabbit [8] (setting [36]); 20 mg/kg/day in the series on rabbit [9] (setting [31]); 20 mg/kg/day in the series with rabbit [9] (setting [37]). The LOAEL was found to be 2000 mg/kg/day in the series on rabbit [7] (setting [31]); 2000 mg/kg/day with rabbit [7] (group: maternal, systemic / in life observation / body weight / body weight + systemic / in life observation / body weight / body weight gain); 40 mg/kg/day in the series on rabbit [8] (setting [35]); 40 mg/kg/day in the series on rabbit [8] (setting [26]); 80 mg/kg/day in the series on rabbit [9] (setting [31]); 80 mg/kg/day in the series with rabbit [9] (setting [37]). Further, the NOAEL with rabbit [7] (group: developmental, systemic / in life observation / body weight / fetal weight + developmental / developmental malformation / bone / absent + developmental / …) is 1500 mg/kg/day; in the series on rabbit [7] (setting [34]), 1500 mg/kg/day; with rabbit [8] (setting [35]) it was 4 mg/kg/day; with rabbit [8] (setting [36]) it was 4 mg/kg/day; with rabbit [9] (setting [31]), 20 mg/kg/day; with rabbit [9] (setting [37]) it was 20 mg/kg/day.

For `CCOCC(O)COc1ccc(NC(=O)CC[S+](C)C)cc1.Cc1ccc(S(=O)(=O)[O-])cc1` (configuration not stated) [Suplatast tosylate], the LEL in the series with rat [10] (setting [38]), with rat [10] (setting [39]), with rat [11] (setting [39]) and in the series with rat [11] (setting [40]) was 1800 mg/kg/day throughout. The LOAEL in the series on rat [10] (setting [38]), in the series on rat [10] (setting [39]), in the series with rat [11] (setting [39]) and with rat [11] (setting [40]) was greater than 1800 mg/kg/day each time. The NEL with rat [10] (setting [38]), in the series with rat [10] (setting [39]), in the series on rat [11] (setting [39]) and in the series with rat [11] (setting [40]) was 600 mg/kg/day in each case. The NOAEL in the series on rat [10] (setting [38]), with rat [10] (setting [39]), with rat [11] (setting [39]) and in the series with rat [11] (setting [40]) was no less than 1800 mg/kg/day each time.

Consider `CNC(=O)O/N=C/C(C)(C)SC` [Aldicarb], for which the LEL in the series on rat [12] (setting [41]) stood at 0.47 mg/kg/day; in the series with rat [12] (setting [42]), 1.44 mg/kg/day; in the series with rat [13] (setting [43]), 0.25 mg/kg/day; in the series with rat [13] (setting [15]), 0.25 mg/kg/day. Further, the LOAEL is 0.47 mg/kg/day in the series on rat [12] (setting [41]), greater than 1.44 mg/kg/day in the series on rat [12] (setting [42]), 0.25 mg/kg/day in the series with rat [13] (setting [43]) and 0.25 mg/kg/day in the series with rat [13] (setting [15]). For the same compound, the NEL in the series with rat [12] (setting [41]) came to 0.047 mg/kg/day; with rat [12] (setting [42]), 0.47 mg/kg/day; in the series on rat [13] (setting [44]), 0.125 mg/kg/day; in the series with rat [13] (setting [16]), 0.125 mg/kg/day. The NOAEL with rat [12] (setting [41]) is 0.047 mg/kg/day; in the series with rat [12] (setting [42]), no less than 1.44 mg/kg/day; with rat [13] (setting [44]), 0.125 mg/kg/day; in the series with rat [13] (setting [16]) it was 0.125 mg/kg/day.
